For 8 compounds, clearance results are on record in patent publication US8580918B2, “Peptidic GLP-2 agonists” (Ferring B.V., priority 2009, dated 2013).

Where a SMILES comes first, the peptide text is derived from it. [ ]: non-standard residue; d: D form. dPhe(4-Cl) = N[C@H](Cc1ccc(Cl)cc1)C(=O)O; Dip = N[C@H](C(=O)O)C(c1ccccc1)c1ccccc1; Phe(4-NH2) = Nc1ccc(C[C@H](N)C(=O)O)cc1; 2Nal = N[C@@H](Cc1ccc2ccccc2c1)C(=O)O; hPhe = N[C@@H](CCc1ccccc1)C(=O)O; Cha = N[C@@H](CC1CCCCC1)C(=O)O; Nle = CCCC[C@H](N)C(=O)O

A short description of one data set: Pharmacokinetics in rats after intravenous bolus injection (systemic clearance). The class given is in vivo. The conditions noted are these: rat, plasma, 0.2 mg FB/kg, adult male Sprague-Dawley rats, i.v. bolus, dose 0.20 mg FB/kg, read-out: CL (ml/kg/min) Average. The method, then: Pharmacokinetic (PK) parameters of illustrative agonists of the GLP-2 receptor were determined in adult male Sprague-Dawley rats post intravenous bolus injection of compounds at doses of 0.1-1.0 mg/kg. Three or four doubly cannulated animals per compound were dosed via jugular vein, blood samples were collected at several intervals via carotid artery, and plasma samples were prepared from whole blood using K2EDTA as anticoagulant. Subsequent bioanalysis of samples included compound extraction and plasma concentration determination using standard LC/MS/MS methods. Analyte concentration was calculated from internal standard normalized peak area and calibration curves.
For calculation of PK parameters the compound concentration-time curves were analyzed with the noncompartmental data analysis software package PK Solutions 2.0™ (Summit Research Services, Montrose Colo.). The systemic clearance per kg body weight (CL) was calculated as the dose per kg body weight divided by the AUC extrapolated to infinity based on trapezoid calculation (AUC∞). Values reported are the arithmetic mean and standard deviation from the number of animals used for each compound as indicated on Table 3.
In the case of `CCCC[C@H](NC(=O)[C@H](CCC(=O)O)NC(=O)[C@H](CC(=O)O)NC(=O)[C@H](CO)NC(=O)[C@H](Cc1ccccc1)NC(=O)[C@H](CO)NC(=O)CNC(=O)[C@H](CC(=O)O)NC(=O)CNC(=O)[C@@H](N)Cc1c[nH]cn1)C(=O)N[C@@H](CC(N)=O)C(=O)N[C@H](C(=O)N[C@H](C(=O)N[C@@H](CC(C)C)C(=O)N[C@@H](CC(=O)O)C(=O)N[C@@H](Cc1c[nH]c2ccccc12)C(=O)N[C@@H](CC(C)C)C(=O)N[C@@H](C)C(=O)N[C@@H](C)C(=O)N[C@@H](CCCNC(=N)N)C(=O)N[C@@H](CC(=O)O)C(=O)N[C@@H](Cc1ccccc1)C(=O)N[C@H](C(=O)N[C@@H](CC(N)=O)C(=O)N[C@@H](Cc1c[nH]c2ccccc12)C(=O)N[C@@H](CC(C)C)C(=O)N[C@H](C(=O)N[C@@H](CCC(N)=O)C(=O)N[C@H](C(=O)N[C@@H](CCCCN)C(N)=O)[C@@H](C)O)[C@@H](C)CC)[C@@H](C)CC)[C@@H](C)CC)[C@@H](C)O` [Compound 22, [Gly2,Nle10,Trp16] hGLP-2 (1-30)-NH2] (H-HGDGSFSDE[Nle]NTILDWLAARDFINWLIQTK-NH2), the clearance is 0.5 mL/kg/min.
On to `CCCC[C@H](NC(=O)[C@H](CCC(=O)O)NC(=O)[C@H](CC(=O)O)NC(=O)[C@H](CO)NC(=O)[C@H](Cc1ccccc1)NC(=O)[C@H](CO)NC(=O)CNC(=O)[C@H](CC(=O)O)NC(=O)CNC(=O)[C@@H](N)Cc1cnc[nH]1)C(=O)N[C@@H](CC(N)=O)C(=O)N[C@H](C(=O)N[C@H](C(=O)N[C@@H](CC(C)C)C(=O)N[C@@H](CC(=O)O)C(=O)N[C@@H](CC1CCCCC1)C(=O)N[C@@H](CC(C)C)C(=O)N[C@@H](C)C(=O)N[C@@H](C)C(=O)N[C@@H](CCCNC(=N)N)C(=O)N[C@@H](CC(=O)O)C(=O)N[C@@H](Cc1ccccc1)C(=O)N[C@H](C(=O)N[C@@H](CC(N)=O)C(=O)N[C@@H](Cc1c[nH]c2ccccc12)C(=O)N[C@@H](CC(C)C)C(=O)N[C@H](C(=O)N[C@@H](CCC(N)=O)C(=O)N[C@H](C(=O)N[C@@H](CCCCN)C(N)=O)[C@@H](C)O)[C@@H](C)CC)[C@@H](C)CC)[C@@H](C)CC)[C@@H](C)O` [Compound 23, [Gly2,Nle10,Cha16] hGLP-2 (1-30)-NH2] (H-HGDGSFSDE[Nle]NTILD[Cha]LAARDFINWLIQTK-NH2), for which the clearance came to 0.41 mL/kg/min.
The same measure, in the same setting: then `CCCC[C@H](NC(=O)[C@H](CCC(=O)O)NC(=O)[C@H](CC(=O)O)NC(=O)[C@H](CO)NC(=O)[C@H](Cc1ccccc1)NC(=O)[C@H](CO)NC(=O)CNC(=O)[C@H](CC(=O)O)NC(=O)CNC(=O)[C@@H](N)Cc1c[nH]cn1)C(=O)N[C@@H](CC(N)=O)C(=O)N[C@H](C(=O)N[C@H](C(=O)N[C@@H](CC(C)C)C(=O)N[C@@H](CC(=O)O)C(=O)N[C@@H](Cc1ccc(N)cc1)C(=O)N[C@@H](CC(C)C)C(=O)N[C@@H](C)C(=O)N[C@@H](C)C(=O)N[C@@H](CCCNC(=N)N)C(=O)N[C@@H](CC(=O)O)C(=O)N[C@@H](Cc1ccccc1)C(=O)N[C@H](C(=O)N[C@@H](CC(N)=O)C(=O)N[C@@H](Cc1c[nH]c2ccccc12)C(=O)N[C@@H](CC(C)C)C(=O)N[C@H](C(=O)N[C@@H](CCC(N)=O)C(=O)N[C@H](C(=O)N[C@@H](CCCCN)C(N)=O)[C@@H](C)O)[C@@H](C)CC)[C@@H](C)CC)[C@@H](C)CC)[C@@H](C)O` [Compound 24, [Gly2,Nle10,Aph16] hGLP-2 (1-30)-NH2] (H-HGDGSFSDE[Nle]NTILD[Phe(4-NH2)]LAARDFINWLIQTK-NH2), with 1.9 mL/kg/min; and `CCCC[C@H](NC(=O)[C@H](CCC(=O)O)NC(=O)[C@H](CC(=O)O)NC(=O)[C@H](CO)NC(=O)[C@H](Cc1ccccc1)NC(=O)[C@H](CO)NC(=O)CNC(=O)[C@H](CC(=O)O)NC(=O)CNC(=O)[C@@H](N)Cc1c[nH]cn1)C(=O)N[C@@H](CC(N)=O)C(=O)N[C@H](C(=O)N[C@H](C(=O)N[C@@H](CC(C)C)C(=O)N[C@@H](CC(=O)O)C(=O)N[C@H](C(=O)N[C@@H](CC(C)C)C(=O)N[C@@H](C)C(=O)N[C@@H](C)C(=O)N[C@@H](CCCNC(=N)N)C(=O)N[C@@H](CC(=O)O)C(=O)N[C@@H](Cc1ccccc1)C(=O)N[C@H](C(=O)N[C@@H](CC(N)=O)C(=O)N[C@@H](Cc1c[nH]c2ccccc12)C(=O)N[C@@H](CC(C)C)C(=O)N[C@H](C(=O)N[C@@H](CCC(N)=O)C(=O)N[C@H](C(=O)N[C@@H](CCCCN)C(N)=O)[C@@H](C)O)[C@@H](C)CC)[C@@H](C)CC)C(c1ccccc1)c1ccccc1)[C@@H](C)CC)[C@@H](C)O` [Compound 26, [Gly2,Nle10,Dip16] hGLP-2 (1-30)-NH2] (H-HGDGSFSDE[Nle]NTILD[Dip]LAARDFINWLIQTK-NH2), with 0.33 mL/kg/min; and `CCCC[C@H](NC(=O)[C@H](CCC(=O)O)NC(=O)[C@H](CC(=O)O)NC(=O)[C@H](CO)NC(=O)[C@H](Cc1ccccc1)NC(=O)[C@H](CO)NC(=O)CNC(=O)[C@H](CC(=O)O)NC(=O)CNC(=O)[C@@H](N)Cc1c[nH]cn1)C(=O)N[C@@H](CC(N)=O)C(=O)N[C@H](C(=O)N[C@H](C(=O)N[C@@H](CC(C)C)C(=O)N[C@@H](CC(=O)O)C(=O)N[C@@H](CCc1ccccc1)C(=O)N[C@@H](CC(C)C)C(=O)N[C@@H](C)C(=O)N[C@@H](C)C(=O)N[C@@H](CCCNC(=N)N)C(=O)N[C@@H](CC(=O)O)C(=O)N[C@@H](Cc1ccccc1)C(=O)N[C@H](C(=O)N[C@@H](CC(N)=O)C(=O)N[C@@H](Cc1c[nH]c2ccccc12)C(=O)N[C@@H](CC(C)C)C(=O)N[C@H](C(=O)N[C@@H](CCC(N)=O)C(=O)N[C@H](C(=O)N[C@@H](CCCCN)C(N)=O)[C@@H](C)O)[C@@H](C)CC)[C@@H](C)CC)[C@@H](C)CC)[C@@H](C)O` [Compound 28, [Gly2,Nle10,hPhe16] hGLP-2 (1-30)-NH2] (H-HGDGSFSDE[Nle]NTILD[hPhe]LAARDFINWLIQTK-NH2), with 0.44 mL/kg/min.
`CCCC[C@H](NC(=O)[C@H](CCC(=O)O)NC(=O)[C@H](CC(=O)O)NC(=O)[C@H](CO)NC(=O)[C@H](Cc1ccccc1)NC(=O)[C@H](CO)NC(=O)CNC(=O)[C@H](CC(=O)O)NC(=O)CNC(=O)[C@@H](N)Cc1cnc[nH]1)C(=O)N[C@H](Cc1ccc(Cl)cc1)C(=O)N[C@H](C(=O)N[C@H](C(=O)N[C@@H](CC(C)C)C(=O)N[C@@H](CC(=O)O)C(=O)N[C@@H](CC(N)=O)C(=O)N[C@@H](CC(C)C)C(=O)N[C@@H](C)C(=O)N[C@@H](C)C(=O)N[C@@H](CCCNC(=N)N)C(=O)N[C@@H](CC(=O)O)C(=O)N[C@@H](Cc1ccccc1)C(=O)N[C@H](C(=O)N[C@@H](CC(N)=O)C(=O)N[C@@H](Cc1c[nH]c2ccccc12)C(=O)N[C@@H](CC(C)C)C(=O)N[C@H](C(=O)N[C@@H](CCC(N)=O)C(=O)N[C@H](C(=O)N[C@@H](CCCCN)C(N)=O)[C@@H](C)O)[C@@H](C)CC)[C@@H](C)CC)[C@@H](C)CC)[C@@H](C)O` [Compound 29, [Gly2,Nle10,D-Cpa11] hGLP-2 (1-30)-NH2] (H-HGDGSFSDE[Nle][dPhe(4-Cl)]TILDNLAARDFINWLIQTK-NH2): the clearance was 0.51 mL/kg/min.
Take `CCCC[C@H](NC(=O)[C@H](CCC(=O)O)NC(=O)[C@H](CC(=O)O)NC(=O)[C@H](CO)NC(=O)[C@H](Cc1ccccc1)NC(=O)[C@H](CO)NC(=O)CNC(=O)[C@H](CC(=O)O)NC(=O)CNC(=O)[C@@H](N)Cc1c[nH]cn1)C(=O)N[C@H](Cc1c[nH]c2ccccc12)C(=O)N[C@H](C(=O)N[C@H](C(=O)N[C@@H](CC(C)C)C(=O)N[C@@H](CC(=O)O)C(=O)N[C@@H](CC(N)=O)C(=O)N[C@@H](CC(C)C)C(=O)N[C@@H](C)C(=O)N[C@@H](C)C(=O)N[C@@H](CCCNC(=N)N)C(=O)N[C@@H](CC(=O)O)C(=O)N[C@@H](Cc1ccccc1)C(=O)N[C@H](C(=O)N[C@@H](CC(N)=O)C(=O)N[C@@H](Cc1c[nH]c2ccccc12)C(=O)N[C@@H](CC(C)C)C(=O)N[C@H](C(=O)N[C@@H](CCC(N)=O)C(=O)N[C@H](C(=O)N[C@@H](CCCCN)C(N)=O)[C@@H](C)O)[C@@H](C)CC)[C@@H](C)CC)[C@@H](C)CC)[C@@H](C)O` [Compound 30, [Gly2,Nle10,D-Trp11] hGLP-2 (1-30)-NH2] (H-HGDGSFSDE[Nle][dW]TILDNLAARDFINWLIQTK-NH2): the clearance is 1.2 mL/kg/min.

The same data set, now with this note: rat, plasma, adult male Sprague-Dawley rats, i.v. bolus, dose 0.18 mg FB/kg, read-out: CL (ml/kg/min) Average.
On to `CCCC[C@H](NC(=O)[C@H](CCC(=O)O)NC(=O)[C@H](CC(=O)O)NC(=O)[C@H](CO)NC(=O)[C@H](Cc1ccccc1)NC(=O)[C@H](CO)NC(=O)CNC(=O)[C@H](CC(=O)O)NC(=O)CNC(=O)[C@@H](N)Cc1c[nH]cn1)C(=O)N[C@@H](CC(N)=O)C(=O)N[C@H](C(=O)N[C@H](C(=O)N[C@@H](CC(C)C)C(=O)N[C@@H](CC(=O)O)C(=O)N[C@@H](Cc1ccc2ccccc2c1)C(=O)N[C@@H](CC(C)C)C(=O)N[C@@H](C)C(=O)N[C@@H](C)C(=O)N[C@@H](CCCNC(=N)N)C(=O)N[C@@H](CC(=O)O)C(=O)N[C@@H](Cc1ccccc1)C(=O)N[C@H](C(=O)N[C@@H](CC(N)=O)C(=O)N[C@@H](Cc1c[nH]c2ccccc12)C(=O)N[C@@H](CC(C)C)C(=O)N[C@H](C(=O)N[C@@H](CCC(N)=O)C(=O)N[C@H](C(=O)N[C@@H](CCCCN)C(N)=O)[C@@H](C)O)[C@@H](C)CC)[C@@H](C)CC)[C@@H](C)CC)[C@@H](C)O` [Compound 20, [Gly2,Nle10,2-Nal16] hGLP-2 (1-30)-NH2] (H-HGDGSFSDE[Nle]NTILD[2Nal]LAARDFINWLIQTK-NH2), for which the clearance stood at 0.28 mL/kg/min.
